Data published in ChEMBL document CHEMBL3603765, “Targeting Drug Resistance in EGFR with Covalent Inhibitors: A Structure-Based Design Approach” (J Med Chem, 2015).
Values after ≈ are worked out from the molar mass of the structure shown. Active and inactive are the calls of the source. No cut-off for these calls is given here.

Experiments:
[1] = target: Epidermal growth factor receptor (Homo sapiens, UniProt P00533); assay: Inhibition of wild type EGFR (unknown origin) expressed in Sf9 cells pre-incubated for 30 mins before substrate and ATP addition by homogeneous time-resolved FRET assay
[2] = target: T1, Epidermal growth factor receptor (Homo sapiens, UniProt P00533, L858R)
[3] = target: T2, Epidermal growth factor receptor (Homo sapiens, UniProt P00533, L858R/T790M)
[4] = target: Proto-oncogene tyrosine-protein kinase Src (Homo sapiens, UniProt P12931, S348C/T341M); assay: Inhibition of cSrc T338M/S345C mutant (unknown origin) pre-incubated for 30 mins before substrate and ATP addition by HTRF assay
NCI-H661 = assay: Growth inhibition of human NCI-H661 cells incubated for 96 hrs by cell-titer Glo reagent based assay; format: functional; conditions: NCI-H661, 96 h
[5] = Growth inhibition of human HCC827 cells with exon 19 deletion and delE746-A750 incubated for 96 hrs by cell-titer Glo reagent based assay; format: functional; conditions: HCC827, 96 h
NCI-H1975 [6] = assay: Growth inhibition of human NCI-H1975 cells expressing EGFR L858R/T790M mutant incubated for 96 hrs by cell-titer Glo reagent based assay; format: functional; conditions: NCI-H1975, 96 h
[7] = target: Proto-oncogene tyrosine-protein kinase Src (Homo sapiens, UniProt P12931); assay: Inhibition of wild type cSrc (251 to 533 residues) (unknown origin) pre-incubated for 30 mins before substrate and ATP addition by HTRF assay
[8] = target: Proto-oncogene tyrosine-protein kinase Src (Homo sapiens, UniProt P12931, T341M); assay: Inhibition of cSrc T338M mutant (unknown origin) pre-incubated for 30 mins before substrate and ATP addition by HTRF assay
A-431 = assay: Growth inhibition of human A431 cells incubated for 96 hrs by cell-titer Glo reagent based assay; format: functional; conditions: A-431, 96 h
[9] = Growth inhibition of human PC9 cells with del1 deletion incubated for 96 hrs by cell-titer Glo reagent based assay; format: functional; conditions: PC-9, 96 h
NCI-H1975 [10] = assay: Growth inhibition of human NCI-H1975 cells expressing EGFR L858R/T790M mutant at 30 um incubated for 96 hrs by cell-titer Glo reagent based assay; format: functional
[11] = test system: Epidermal growth factor receptor (Homo sapiens), P00533 [T790M]; assay: Binding affinity to EGFR T790M mutant (unknown origin) expressed in Sf9 cells by ESI-MS method
[12] = test system: Epidermal growth factor receptor (Homo sapiens), P00533 [T790M]; assay: Binding affinity to EGFR T790M mutant (unknown origin) expressed in Sf9 cells assessed as covalent modification at Cys797 residue nano-LC-MS/MS method
[13] = target: T1, Epidermal growth factor receptor; assay: Inhibition of EGFR L858R mutant (unknown origin) expressed in Sf9 cells by enzyme kinetics assay
[14] = target: T2, Epidermal growth factor receptor; assay: Inhibition of EGFR L858R/T790M mutant (unknown origin) expressed in Sf9 cells by enzyme kinetics assay
[15] = test system: Epidermal growth factor receptor (Homo sapiens), P00533 [L858R]; assay: Inhibition of EGFR L858R mutant (unknown origin) expressed in Sf9 cells assessed as enzyme inactivation constant by enzyme kinetics assay
[16] = test system: Epidermal growth factor receptor (Homo sapiens), P00533 [L858R,T790M]; assay: Inhibition of EGFR L858R/T790M mutant (unknown origin) expressed in Sf9 cells assessed as enzyme inactivation constant by enzyme kinetics assay
[17] = Kinetic solubility in 50 mM Hepes buffer at pH 7.4; format: physicochemical; conditions: read-out: Kinetic_solubility
[18] = Permeability of the compound after 16 hrs assessed as compound flux by PAMPA method; format: physicochemical
[19] = Efflux ratio in human Caco2 cells incubated for 2 hrs; format: ADME, cell-based; conditions: Caco-2
Homo sapiens = species: Homo sapiens; assay: Selectivity index, ratio of IC50 for cSrc T338M mutant (unknown origin) to IC50 for cSrc T338M/S345C mutant (unknown origin)

IC50 [1] [nM] | IC50 [2] [nM] | IC50 [3] [nM] | Structure (SMILES) | GI50 [5] [nM] | other results
> 10000 | 1800 | 900 | C=CC(=O)Nc1cccc(Oc2nccc(Nc3cc(C)[nH]n3)n2)c1 | – | –
> 10000 | > 10000 | > 10000 | CCC(=O)Nc1ccc(-c2nc(Nc3cc[nH]n3)c3ccccc3n2)cc1 | – | –
> 10000 | 1900 | 700 | CCC(=O)Nc1ccc(Oc2nc(Nc3cc(C)[nH]n3)cc(N3CCN(C)CC3)n2)cc1 | – | –
> 10000 | > 10000 | 8600 | CCC(=O)Nc1cccc(Oc2nc(Nc3n[nH]c4ccccc34)cc(N3CCN(C)CC3)n2)c1 | > 30000 | IC50 [4]: 260 nM; GI50 (NCI-H661): 22000 nM; GI50 (NCI-H1975 [6]): 30000 nM
> 10000 | 3400 | > 10000 | CCC(=O)Nc1cc(Nc2cc[nH]n2)nc(-c2ccccc2)n1 | – | –
> 10000 | 1900 | 1600 | Cc1cc(Nc2cc(N3CCN(C)CC3)nc(Oc3ccccc3[N+](=O)[O-])n2)n[nH]1 | – | –
> 10000 | 1900 | 2200 | C=CC(=O)Nc1ccc2c(Nc3cc[nH]n3)nc(-c3ccccc3)nc2c1 | – | IC50 [7]: 211 nM; IC50 [8]: 65 nM; IC50 [4]: 43 nM; GI50 (A-431): 700 nM; GI50 [9]: 1900 nM; GI50 (NCI-H1975 [6]): 1600 nM
2000 | 2100 | 1500 | Cc1cc(Nc2cc(N3CCN(C)CC3)nc(Oc3ccc(NC(=O)/C=C/C(F)(F)F)cc3)n2)n[nH]1 | – | –
> 10000 | > 10000 | > 10000 | CCC(=O)Nc1cccc(Oc2nccc(Nc3cc(C)[nH]n3)n2)c1 | – | –
3600 | 600 | 200 | C=CC(=O)Nc1cccc(Oc2nc(Nc3n[nH]c4ccccc34)cc(N3CCN(C(C)=O)CC3)n2)c1 | 25000 | GI50 (NCI-H661): > 30000 nM; growth inhibition (GI) (NCI-H1975 [10]): inactive
900 | 800 | 300 | C=CC(=O)Nc1cc(Nc2cc[nH]n2)nc(-c2ccccc2)n1 | – | Activity [11]: Active
> 10000 | 2100 | 2200 | CCC(=O)Nc1ccc2c(Nc3cc[nH]n3)nc(-c3ccccc3)nc2c1 | – | IC50 [7]: 336 nM; IC50 [8]: 60 nM; IC50 [4]: 48 nM
1700 | 500 | 70 | C=CC(=O)Nc1cccc(Oc2nc(Nc3n[nH]c4ccccc34)cc(N3CCN(C)CC3)n2)c1 | 2500 | Activity [11]: Active; Activity [12]: Active; IC50 [4]: 17 nM; Ki [13]: 833 nM; Ki [14]: 0.32 nM; Kinact [15]: 0.055 min⁻¹; Kinact [16]: 0.137 min⁻¹; GI50 (NCI-H661): 8600 nM; GI50 (NCI-H1975 [6]): 9800 nM; solubility kinetic [17]: 277 µM (≈ 130 µg/mL); permeability [18]: 47%; efflux ratio at 2 h [19]: 35
> 10000 | > 10000 | > 10000 | C=CC(=O)Nc1ccc(-c2nc(Nc3cc[nH]n3)c3ccccc3n2)cc1 | – | –
> 10000 | 2100 | 1400 | Cc1cc(Nc2cc(N3CCN(C)CC3)nc(Oc3ccc(N)cc3)n2)n[nH]1 | – | –
> 10000 | 2700 | 1100 | C=CC(=O)Nc1ccccc1-c1nc(Nc2cc[nH]n2)c2ccccc2n1 | – | –
> 10000 | 1800 | 900 | Cc1cc(Nc2cc(N3CCN(C)CC3)nc(Oc3ccc([N+](=O)[O-])cc3)n2)n[nH]1 | – | –

IC50 [1] [nM] | IC50 [2] [nM] | IC50 [3] [nM] | Structure (SMILES) | GI50 [5] [nM] | other results
3100 | 1800 | 2400 | C=CC(=O)Nc1ccc(Oc2nc(Nc3cc(C)[nH]n3)cc(N3CCN(C)CC3)n2)cc1 | – | –
> 10000 | > 10000 | > 10000 | CCC(=O)Nc1ccccc1-c1nc(Nc2cc[nH]n2)c2ccccc2n1 | – | –
> 10000 | 1900 | > 10000 | CCC(=O)Nc1cccc(Oc2nc(Nc3cc(C)[nH]n3)cc(N3CCN(C)CC3)n2)c1 | > 30000 | IC50 [8]: 254 nM; IC50 [4]: 349 nM; GI50 (A-431): 8400 nM; GI50 (NCI-H1975 [6]): > 30000 nM
> 10000 | > 10000 | > 10000 | CCC(=O)Nc1ccccc1Oc1nc(Nc2cc(C)[nH]n2)cc(N2CCN(C)CC2)n1 | – | –
> 10000 | > 10000 | > 10000 | CCC(=O)Nc1cccc(Oc2nc(Nc3cc[nH]n3)cc(N3CCN(C)CC3)n2)c1 | – | –
6700 | 3600 | 700 | CN(C)C/C=C/C(=O)Nc1cccc(Oc2nc(Nc3n[nH]c4ccccc34)cc(N3CCN(C)CC3)n2)c1 | > 30000 | GI50 (NCI-H661): > 30000 nM; growth inhibition (GI) (NCI-H1975 [10]): inactive
1100 | 500 | 100 | C=CC(=O)Nc1cccc(-c2nc(Nc3cc[nH]n3)c3ccccc3n2)c1 | – | –
> 10000 | 2000 | 1900 | C=CC(=O)Nc1cccc(Oc2nc(Nc3cc[nH]n3)cc(N3CCN(C)CC3)n2)c1 | – | –
900 | 600 | 2100 | C=CC(=O)Nc1ccccc1Oc1nc(Nc2cc(C)[nH]n2)cc(N2CCN(C)CC2)n1 | – | –
> 10000 | 30 | 500 | C=CC(=O)Nc1cccc(Oc2nc(Nc3cc(C)[nH]n3)cc(N3CCN(C)CC3)n2)c1 | 8200 | Activity [11]: Active; Activity [12]: Active; IC50 [8]: 170 nM; IC50 [4]: 28 nM; Ratio IC50 (Homo sapiens): 5; Ki [13]: 70.2 nM; Ki [14]: 0.64 nM; Kinact [15]: 0.017 min⁻¹; Kinact [16]: 0.116 min⁻¹; GI50 (A-431): 5700 nM; GI50 (NCI-H1975 [6]): 20000 nM; solubility kinetic [17]: 432 µM (≈ 188 µg/mL); permeability [18]: 7%; efflux ratio at 2 h [19]: 32
> 10000 | > 10000 | 4900 | Cc1cc(Nc2cc(N3CCN(C)CC3)nc(Oc3cccc(N)c3)n2)n[nH]1 | > 30000 | GI50 (A-431): 20000 nM; GI50 (NCI-H1975 [6]): > 30000 nM
> 10000 | 2800 | 2500 | C=CC(=O)Nc1cccc(-c2nccc(Nc3cc(C)[nH]n3)n2)c1 | – | –
> 10000 | 5000 | 4900 | C=CC(=O)Nc1cccc(-c2nc(Nc3n[nH]c4ccccc34)cc(N3CCN(C)CC3)n2)c1 | 16000 | GI50 (NCI-H661): 12000 nM; GI50 (NCI-H1975 [6]): 11000 nM
3900 | 2300 | 600 | Cc1cc(Nc2cc(N3CCN(C)CC3)nc(Oc3cccc([N+](=O)[O-])c3)n2)n[nH]1 | 8900 | GI50 (A-431): 3500 nM; GI50 (NCI-H1975 [6]): 6500 nM
2900 | 400 | 300 | C=CC(=O)Nc1cccc(Oc2nc(Nc3n[nH]c4ccc(Br)cc34)cc(N3CCN(C)CC3)n2)c1 | 8600 | GI50 (NCI-H661): 11000 nM; GI50 (NCI-H1975 [6]): 18000 nM
– | – | – | C=CC(=O)Nc1cccc(Nc2nc(Nc3ccc(N4CCN(C(C)=O)CC4)cc3OC)ncc2C(F)(F)F)c1 [ROCILETINIB] | 30 | GI50 (NCI-H661): 1700 nM; GI50 (NCI-H1975 [6]): 30 nM
3700 | 1900 | 400 | CCC(=O)Nc1cccc(-c2nc(Nc3cc[nH]n3)c3ccccc3n2)c1 | – | –
